We go through 1 molecule from publication PMC10574532, “Revisiting Supersaturation of a Biopharmaceutical Classification System IIB Drug: Evaluation via a Multi-Cup Dissolution Approach and Molecular Dynamic Simulation” (Molecules, 2023).

≈ marks a conversion by molar mass, not a printed value.

Data set [1] can be described thus: pH-dependent equilibrium solubility of ketoconazole in biorelevant fluids (FaSSIF) with or without precipitation inhibitor. Type of data set: physicochemical. The note with it: modified Henderson-Hasselbalch fit, 37 °C. The procedure:
Specifically, FaSSIF was prepared with different proportions of 0.2 mol/L disodium hydrogen phosphate (Na2HPO4) solution and 0.1 mol/L citric acid (C6H8O7) solution, with commercial standard FaSSIF powder. […] The final pH of each solution was measured before centrifugation at 10,000× g for 10 min at 37 °C. […] A sample volume of 10 μL was injected and subsequently separated on a Kromasil C18 column (5 μm, 4.6 × 250 mm) maintained at a temperature of 30 °C. The mobile phase consisted of a modified phosphoric acid solution containing 10 mM KH2PO4 in water (pH adjusted to 3.0), along with acetonitrile in a ratio of 50:50 (v/v). The flow rate employed was set at 1 mL/min while detection occurred at a wavelength of 254 nm.

The nature of data set [2]: Supersaturation-precipitation and absorption in the dynamic gastrointestinal model (DGIM). The class given is physicochemical. How it is done: The DGIM is achieved through a system consisting of 3 dissolution cups, which represent stomach, duodenum, and jejunum, respectively, filled with corresponding biorelevant fluid. N-octanol serves as the absorptive phase. The pumps facilitate fluid transfer, as depicted by arrows in Figure 9. In situ drug concentration is determined using fiber optical probes, and dynamic pH value of the aqueous fluid is monitored by pH electrodes. The parameters of DGIM can be adjusted to meet some special physiological conditions.
In this study, most of the parameters were based on the GIS proposed by Hens et al.. The pH values in the three cups were adjusted to 2.0, 5.9, and 6.1, respectively, to simulate the physiological digestive fluid in the stomach, duodenum, and jejunum of the fasted rats. […] The secretions used were biorelevant fluids that had been concentrated four times and pumped at a rate of 1 mL/min. Considering an average gastric half-emptying time ( th ) of approximately eight minutes, pump A transported gastric fluid into the duodenal cup at this first-order rate. Ensuring that the volume of biorelevant fluid in the duodenal cup was maintained at a constant level of 50 mL, any excess fluid was transported to the jejunal cup through pump B. Therefore, we can represent the rates va for pump A and vb for pump B at time t using following equations:(5) va=ln2×Vg,0×exp−ln2×t/th+1 (6) vb=va+1
The pump rate was regulated by a mono-chip computer, which was programmed to dynamically adjust the rate every second in accordance with first-order kinetics. […] The pumps worked until 40 min because, at that time, the solution in the gastric cup was less than 10 mL. However, the experiment continued for 3 h. The paddles were stirred at a rate of 50 rpm. All the cups were in a water bath at 37 °C.
Fiber optic probes with a 1 mm tip were connected to the instrument and employed for the detection of the 270–275 nm wavelength band. This detection specifically targeted the area under the curve (AUC) of the second derivatized absorbance curves. Calibration was performed using the accumulated addition method. The standard curves encompassed a wide concentration range in the dissolution process while ensuring linearity with an r^2 > 0.999.

The nature of the next data set: In vivo pharmacokinetics. Further details: species or system Male Sprague Dawley rats. The note with it: plasma, rat. How it is done:
The animal study was conducted in accordance with the National Research Council’s Guide for the Care and Use of Laboratory Animals and approved by the Ethics Committee of Chengdu University of Traditional Chinese Medicine (Approval Code: 2021-76). All procedures were performed in compliance with relevant regulations and guidelines. Male Sprague Dawley rats weighing 180–220 g were fasted overnight (12 h) with free access to water, then randomly assigned to 4 groups (n = 6). […] Approximately 50 μL of blood samples were collected into EDTA-K2-treated Eppendorf tubes at time points ranging from 0.083, 0.25, 0.5, 1, 2, 4, and 6 to 10 h after dosing. The blood samples were centrifuged at 2000× g and 4 °C for 10 min, followed by collection and storage of the supernatant plasma at −20 °C until analysis. […] A protein precipitation method was employed to pretreat 10 μL plasma with 430 μL acetonitrile, 50 μL internal standard solution (gefitinib), and 10 μL mobile phase. After centrifugation at 10,000× g for 10 min at 4 °C, the supernatant was injected into the apparatus and then separated by a Thermo Hypersil C18 chromatographic column (3 μm, 2.1 mm × 50 mm) at 40 °C. […] Phoenix 8.1 WinNonlin Toolkit (Certara, Princeton, NJ, USA) was employed to conduct the non-compartment model of pharmacokinetic analysis.

Data set [3] can be described thus: IVIVC prediction based on DGIM in vitro absorption data. Further details: species or system Male Sprague Dawley rats. The note with it: predicted through IVIVC from DGIM. How it is done:
(§1) The in vitro–in vivo correlation (IVIVC) was performed using Phoenix 8.1 IVIVC Toolkit (Certara, Princeton, NJ, USA). […] Double Weibull Dissolution Model was selected for fitting both dissolution data from the absorptive phase of DGIM and USP II. The absorption data were obtained via deconvolution analysis of the drug plasma concentration–time curves. The reference formulation for deconvolution to estimate oral absorption was based on the in vivo data of the i.v. group. Additionally, both control group and PVPVA group’s in vitro data were used to establish a correlation between dissolved fraction and absorbed fraction, while the HPMC group’s data served as external validation. The maximum number of unit impulse response exponentials defaulted to three. With WinNonlin Generated Initial Parameter and Winnonlin Bounds, the best correlation model was selected according to the lowest AIC. Validation parameters included AUClast calculated with linear trapezoidal method along with linear interpolation averaging as mean values were adopted. The process of prediction followed the same parameters above. The prediction error (PE) was evaluated following the FDA’s guidance.

The nature of data set [4]: IVIVC prediction based on USP II in vitro absorption data. The note with it: predicted through IVIVC from USP II. Further details: species or system Male Sprague Dawley rats. How it is done: as §1
For data set [5] the following is noted: phosphate buffer ref 19; cited from earlier work.
Where [6] appears, read: aqueous phase of the duodenal cup.

As a reminder, the pKa is the negative logarithm of the acid dissociation constant. Usually bioavailability stands for dose-corrected exposure relative to a reference, in per cent. The AUC is concentration integrated over time. As usually defined, the Cmax is the highest concentration seen after dosing. On to `CC(=O)N1CCN(c2ccc(OCC3COC(Cn4ccnc4)(c4ccc(Cl)cc4Cl)O3)cc2)CC1` (centres unmarked) [ketoconazole, Ketoconazole], for which the pKa in data set [1] (FaSSIF (biorelevant fluid), read-out: pKa of the fitted pH-solubility function) worked out at 6.32. For the same molecule, in data set [1] (FaSSIF, read-out: CU (concentration of unionized form) of the fitted pH-solubility function), the solubility at 24 h was 7.88 µg/mL (≈ 14.8 µM). Besides, the “DSAUC (area under the degree of supersaturation over time curve)” value in data set [2] (Duodenal) worked out at 3.715. Further, in data set [2] (Jejunal), the “DSAUC (area under the degree of supersaturation over time curve)” value worked out at 5.452. In data set [2] (setting [6]), the major precipitation time amounted to 19 min and the “maximum concentration of ketoconazole” value turned out to be 1049 µg/mL. Further, in data set [2] (jejunal aqueous phase), the “maximum concentration of ketoconazole” value worked out at 282 µg/mL. The bioavailability in the data set “In vivo pharmacokinetics” (male, Sprague Dawley, oral 10 mg/kg vs i.v. 2.5 mg/kg, read-out: absolute bioavailability) turned out to be 70%. Also, the AUC in the data set “In vivo pharmacokinetics” (male, Sprague Dawley, po, 10 mg/kg, read-out: AUC, Observation) was 113 µg·h/mL. Moreover, the Cmax in “In vivo pharmacokinetics” (male, Sprague Dawley, po, 10 mg/kg, read-out: Cmax, Observation) stood at 41300 ng/mL. Also, in the data set “In vivo pharmacokinetics” (oral 10 mg/kg ketoconazole), the “AUC, Observation” value is on record as 112,853 h·ng·mL^−1 and the “Cmax, Observation” value is 41,300 ng·mL^−1. For the same molecule, in data set [3], the “AUC, Prediction” value was 114,652 h·ng·mL^−1 and the “Cmax, Prediction” value is on record as 45,529 ng·mL^−1. Besides, in data set [4], the “AUC, Prediction” value is reported as 108,727 h·ng·mL^−1 and the “Cmax, Prediction” value is given as 45,702 ng·mL^−1. Moreover, the “pKa, reported value” in data set [5] is reported as 6.5.
